Data from US20240009190A1, “COMBINATION CANCER THERAPY USING CHK INHIBITOR” (SHANGHAI HUAYU BIOTECHNOLOGY CO., LTD., priority 2020, published 2024).

Tests used:
[1] = Mice body weight and survival in CT-26 WT tumor model (Example 1); assay type: in vivo, BALB/c female mice; conditions: Day 27; Compound 6 35 mg/kg, anti-m-PD-1 10 mg/kg
Experimental: (§1) Mice were observed every day for their physical conditions and activities, and mice body weight and tumor volume were measured every Tuesday, Thursday and Sunday. The tumor volume (V) was calculated as (length×width^2)/2.
(§2) At Day 27, mice were subject to euthanasia, from which tumors were collected, weighed and photographed. Mice body weights, tumor sizes and tumor weights were analyzed using the t-test in SPSS, and group differences were deemed statistically significant when the p-value was 0.05 or less.

MC38 cells [2] = experiment: MC38 tumor model in transgenic mice, Compound 6, anti-PD-1 antibody and gemcitabine (Example 5); assay type: in vivo, C57BL/6-Pdcd1^em(hPDCD1) Cd274^em1(hPD-L1)/Smoc mice; conditions: Day 23; Compound 6 15 mg/kg IP QD × 14; GEM 20 mg/kg IV QW × 2; anti-PD-1 10 mg/kg IP Q5D × 3
Experimental: MC38 cells were maintained at 37° C. in 5% CO2 in RPMI 1640 medium (10-040-CV, Corning cellgro) supplemented with 10% FBS (10270-106, GIBCO) and used before the 10th subculture.
Female C57BL/6-Pdcd1^em(hPDCD1) Cd274^em1(hPD-L1)/Smoc mice (Shanghai Model Organisms), 20-25 g, were subcutaneously injected with about 5×10^5 MC38 cells, respectively.
When tumors grew to 50-70 mm^3, these mice were randomly assigned to 8 groups, 8 mice per group, this day was at Day 9. From Day 9, the animals were administered with gemcitabine (GEM) in saline at 20 mg/mL, an anti-PD-1 antibody (Toripalimab, Shanghai Junshi Biosciences Co., Ltd. China) in saline at 40 mg/mL, Compound 6 in saline at 8 mg/mL, Compound 6+gemcitabine, gemcitabine+anti-PD-1, Compound 6+anti-PD-1, Compound 6+gemcitabine+anti-PD-1, and the control vehicle (5% GS), respectively, according to the dosing regimen shown in Table 11 below.
Mice were observed every day for their physical conditions and activities, and mice body weight and tumor volume were measured every other day. The tumor volume (V) was calculated as (length×width^2)/2.
Mice body weights, and tumor sizes were analyzed using the t-test in SPSS, and group differences were deemed statistically significant when the p-value was 0.05 or less.
Tumor growth inhibition (TGI) was calculated by the following formula. Tumor growth inhibition=(average tumor size in vehicle group-average tumor size in administration group)/average tumor size in vehicle group×100%
Zheng-Jun Jin's Q value was calculated as described above.

CT-26 WT cells [3] = experiment: CT-26 WT subcutaneous tumor model, CHK inhibitors at lower dose with anti-m-PD-1 antibody (Example 2); assay type: in vivo, BALB/c female mice; conditions: for Average tumor size: compounds 15 mg/kg tail vein once per day, anti-m-PD-1 10 mg/kg IP once every five days
Experimental: The anti-tumor effect of Compound 6 at a lower dose in combination with an anti-PD-1 antibody was studied in this Example. Further, three compounds obtained by structurally modifying Compound 6, i.e., Compound 6-1, Compound 6-2 and Compound 6-3, were tested alone or in combination with an anti-PD-1 antibody for their anti-tumor effects.
At Day 0, 105 BALB/c female mice, 4-5 weeks old, were subcutaneously injected with about 200.0 μL of the CT-26 WT cell medium containing about 5×10^5 cells, respectively.
At Day 5, 80 tumor-bearing mice were randomly assigned to ten groups according to their body weights, 8 mice per group. The remaining mice were subject to euthanasia.
The ten groups of animals were administered with an anti-m-PD-1 antibody (BE0146, BioXcell) in PBS (21-040-CVR, BioXcell) at 1.0 mg/mL, Compound 6 in saline at 1.5 mg/mL, Compound 6-1 in saline at 1.5 mg/mL, Compound 6-2 in saline at 1.5 mg/mL, Compound 6-3 in saline at 1.5 mg/mL, the anti-m-PD-1 antibody+Compound 6, the anti-m-PD-1 antibody+Compound 6-1, the anti-m-PD-1 antibody+Compound 6-2, the anti-m-PD-1 antibody+Compound 6-3, and the control vehicle (saline), respectively, at doses shown in Table 3 below.
as §1
as §2, with “23,” for “27,”, “less. Tumor weight based tumor growth inhibition (TGI) and Zheng-Jun Jin's Q value were calculated.” for “less.”

[4] = Mice body weight in CT-26 WT tumor model (Example 2); assay type: in vivo, BALB/c female mice; conditions: for Average body weight: compounds 15 mg/kg tail vein once per day, anti-m-PD-1 10 mg/kg IP once every five days
Experimental: as §1
as §2, with “23,” for “27,”, “less. Tumor weight based tumor growth inhibition (TGI) and Zheng-Jun Jin's Q value were calculated.” for “less.”

CT-26 WT cells [5] = experiment: CT-26 WT subcutaneous tumor model, Compound 6 with anti-m-PD-1 antibody (Example 1); assay type: in vivo, BALB/c female mice; conditions: Day 27; Compound 6 35 mg/kg tail vein once per day; anti-m-PD-1 10 mg/kg IP once every five days, four times
Experimental: CT-26 WT cells were maintained at 37° C. in 5% CO2 in RPMI 1640 medium (10-040-CV, Corning cellgro) supplemented with 10% FBS (10270-106, GIBCO) and used before the 10th subculture.
At Day 0, 45 BALB/c female mice, 4-5 weeks old, were subcutaneously injected with about 200.0 μL of the CT-26 WT cell medium containing about 5×10^5 cells, respectively.
At Day 5, 32 tumor-bearing mice were randomly assigned to four groups according to their body weights, 8 mice per group. The remaining mice were subject to euthanasia. […]
as §1, §2
Tumor growth inhibition (TGI) was calculated by the following two formulae. […]
Further, Zheng-Jun Jin's Q value was calculated using the formula Q=EA+B/(EA+EB−EA×EB) to assess the combined effect of the anti-PD-1 antibody and Compound 6, wherein EA+B, EA, and EB referred to the TGIs of the combination therapy, anti-PD-1 administration and Compound 6 administration, respectively. […]

MC38 cells [6] = experiment: MC38 tumor model in transgenic mice, lower dose of anti-PD-1 antibody (Example 4); assay type: in vivo, C57BL/6-Pdcd1^em1(hPDCD1) Cd274^em1(hPD-L1)/Smoc mice; conditions: Compound 6 8 mg/kg IP QD × 14; anti-PD-1 or hIgG4 2.5 mg/kg IP BIW × 3
Experimental: The test of Example 3 was repeated in the same transgenic mouse model using a lower dose of anti-PD-1 antibody, i.e., 2.5 mg/kg anti-PD-1, with some other minor modifications.
In particular, female C57BL/6-Pdcd1^em1(hPDCD1) Cd274^em1(hPD-L1)/Smoc mice (Shanghai Model Organisms), 5-7 weeks old, were subcutaneously injected with about 3×10^5 MC38 cells, respectively.
(§3) When tumors grew to 50-100 mm^3, these mice were randomly assigned to four groups, 8 mice per group, this day was designated as Day 0. From Day 0, the animals were administered with an anti-PD-1 antibody (Toripalimab, Shanghai Junshi Biosciences Co., Ltd. China) in 5% GS (5% glucose solution) at 40 mg/mL, an hIgG4 (Novoprotein, NovoPro Bioscience Inc.) in 5% GS at 3.3 mg/mL, Compound 6 in 5% GS at 8 mg/mL in combination with the anti-PD-1 antibody, and Compound 6 in combination with hIgG4, respectively, according to the dosing regimen shown in Table 10 below.

MC38 cells [7] = experiment: MC38 tumor model in mPD-1-/- mPD-L1-/- hPD-1+/+ hPD-L1+/+ transgenic mice (Example 3); assay type: in vivo, C57BL/6-Pdcd1^em1(hPDCD1) Cd274^em1(hPD-L1)/Smoc mice
Experimental: MC38 cells were maintained at 37° C. in 5% CO2 in RPMI 1640 medium (10-040-CV, Corning cellgro) supplemented with 10% FBS (10270-106, GIBCO, Thermo Fisher Scientific), 100 U/ml penicillin and 100 U/ml streptomycin in 10-cm Petri dishes.
Female C57BL/6-Pdcd1^em1(hPDCD1) Cd274^em1(hPD-L1)/Smoc mice, 20-25 g (Shanghai Model Organisms), were subcutaneously injected with about 3×10^5 MC38 cells, respectively.
as §3, with “50-70” for “50-100”, “saline” for “5% GS (5% glucose solution)”, “40.0” for “40”, “saline” for “5% GS”, “8 above.” for “10 below.”
Mice were observed every day for their physical conditions and activities, and mice body weight and tumor volume were measured twice a week. The tumor volume (V) was calculated as (length×width^2)/2.
Mice in Group 1 and Group 2 were subjected to euthanasia at Day 14, and those from Group 3 and Group 4 on Day 21, from which tumors were collected and photographed. Mice body weights and tumor sizes were analyzed using the t-test in SPSS, and group differences were deemed statistically significant when the p-value was 0.05 or less. TGI and Zheng-Jun Jin's Q value were calculated.

[8] = patients receiving various doses; pooled analysis of 14 phase I-III studies; cited from earlier work
[9] = Day 23, compounds 15 mg/kg, anti-m-PD-1 10 mg/kg

Molecule: NC(=O)c1nnc(N[C@H]2CCCNC2)c2cc(-c3cccc(F)c3)sc12 [Compound 6, 2-(3-fluorophenyl)-4-(3-piperidineamino)-thieno[2,3-d]pyridazine-7-carboxylic acid amide]
- average mice weight, tumor weight deducted [1]: 18.41 g
- TGI based on tumor sizes (MC38 cells [2]): 52.53%
- Average tumor size (CT-26 WT cells [3]; Day 9): 163.24 mm^3
- Average tumor size (CT-26 WT cells [3]; Day 10): 220.45 mm^3
- Average tumor size (CT-26 WT cells [3]; Day 12): 367.43 mm^3
- Average tumor size (CT-26 WT cells [3]; Day 14): 494.61 mm^3
- Average tumor size (CT-26 WT cells [3]; Day 16): 666.40 mm^3
- Average tumor size (CT-26 WT cells [3]; Day 18): 770.93 mm^3
- Average tumor size (CT-26 WT cells [3]; Day 20): 955.40 mm^3
- Average tumor size (CT-26 WT cells [3]; Day 22): 1094.31 mm^3
- Average tumor size (CT-26 WT cells [3]; Day 23): 1071.65 mm^3
- Tumor weight based TGI (CT-26 WT cells [3]; [9]): 52.30%
- Tumor weight, Average (CT-26 WT cells [3]; Day 23, group average of 8 mice): 1.35 g
- Tumor weight, Mouse no. 1 (CT-26 WT cells [3]; Day 23, individual mouse): 0.95 g
- Tumor weight, Mouse no. 2 (CT-26 WT cells [3]; Day 23, individual mouse): 0.28 g
- Tumor weight, Mouse no. 3 (CT-26 WT cells [3]; Day 23, individual mouse): 0.59 g
- Tumor weight, Mouse no. 4 (CT-26 WT cells [3]; Day 23, individual mouse): 2.43 g
- Tumor weight, Mouse no. 5 (CT-26 WT cells [3]; Day 23, individual mouse): 2.97 g
- Tumor weight, Mouse no. 6 (CT-26 WT cells [3]; Day 23, individual mouse): 0.97 g
- Tumor weight, Mouse no. 7 (CT-26 WT cells [3]; Day 23, individual mouse): 2.04 g
- Tumor weight, Mouse no. 8 (CT-26 WT cells [3]; Day 23, individual mouse): 0.57 g
- Average body weight ([4]; Day 9): 16.39 g
- Average body weight ([4]; Day 10): 16.85 g
- Average body weight ([4]; Day 12): 16.87 g
- Average body weight ([4]; Day 14): 17.03 g
- Average body weight ([4]; Day 16): 17.88 g
- Average body weight ([4]; Day 18): 17.89 g
- Average body weight ([4]; Day 20): 18.25 g
- Average body weight ([4]; Day 22): 18.37 g
- Average body weight ([4]; Day 23): 18.98 g
- average mice weight, tumor weight deducted [4, 9]: 17.63 g
- TGI - tumor size (CT-26 WT cells [5]): 72.74%
- TGI - tumor weight (CT-26 WT cells [5]): 77.53%

Molecule: Toripalimab [anti-PD-1]
- TGI (MC38 cells [6]): 46.95%
- TGI based on tumor sizes (MC38 cells [2]): 17.05%
- Average tumor size (MC38 cells [7]; Day 0 (day of grouping, start of dosing)): 59.1 ± 0.4 mm^3
- Average tumor size (MC38 cells [7]; Day 14, Compound 6 8 mg/kg IP QD Day 0-13, anti-PD-1 or hIgG4 3 mg/kg IP Q2D): 792.1 ± 207.1 mm^3
- TGI (%) on D14 (MC38 cells [7]; Day 14, Compound 6 8 mg/kg IP QD, anti-PD-1 or hIgG4 3 mg/kg IP Q2D): 58%

Molecule: ipilimumab
- patients who experienced immune-related adverse effects [8]: 64%
